Here are results for 1 compound from patent publication US6335021B1, “Composition for controlling mood disorders in healthy individuals” (Sigma-Tau HealthScience S.p.A., priority 1997, dated 2002).

For the data set, the system named is subjects suffering from dysthymic disorders. The data set is described as follows: Clinical trial of acetyl L-carnitine in patients with mood disorders classifiable as dysthymia (rating scales, alcohol intake, libido, safety). In kind it is in vivo, human. Conditions: for Hamilton Depression Rating Scale (HDRS): basal 13.9 ± 5.3; for Hamilton Anxiety Rating Scale (HARS): basal 18.6 ± 3.8; for Global Functional (or Social Adaptation) Rating (GFR): basal 63.4 ± 6.6; for alcohol-free days: baseline 6±2. The source says: The selection of the patients for this trial consisted in a selection by exclusion, in which the medical history criterion was of paramount importance, with exclusion of all patients presenting episodes of major depression and cyclothymic manifestations classifiable as such on the basis of the DMS criteria.
Subjects were therefore recruited whose mood disorders had been dominated by dysphoric manifestations for at least 4 years, classifiable as dysthymia (DMS IV) and a depressive, irritable, cyclothymic personality or temperament on the basis of DMS IV and AXIS II. A total of 20 patients were selected, 12 males and 8 females, matching up to the above-mentioned criteria, and with a mean age of 26±2 years. Six patients (males) also complained of diminished libido and episodes of impotence, while the 8 female patients complained of loss of libido and anorexia. Eight patients (4 males) reported an increased intake of alcoholic beverages, without clinical complications, in the previous 8 months (mean intake 142±15 g/day) and 6 patients (1 male) reported bulimic episodes resulting in a mean weight gain of 2.1±0.5 kg over the previous 6 months.
Each patient was recruited into the study after 3 repeated visits, at monthly intervals, for the purposes of ruling out other concomitant pathologies or disorders according to DMS IV and AXIS II involving definite abuse of psychotropic substances. The objective neurological examination, current laboratory tests (SMA plus), ECG. BP and chest X-rays were all within normal limits.
None of the patients had been treated with SSRI or tricyclic antidepressants during the previous year. In the course of the month preceding the treatment with acetyl L-carnitine all treatments consisting in administration of benzodiazepines during the daytime were discontinued and only the administration of Lorazepam (2.5 mg) at 9 p.m. was allowed for all patients.
Each patient was administered acetyl L-carnitine 1 g per os twice daily (at breakfast- and lunch-time) for two months.
During the clinical interviews, at entry into the study, on day 45 of administration of acetyl L-carnitine and on day 90 (one month after the end of the treatment), patients were administered the following standardized rating scales: Hamilton Depression Rating Scale (HDRS), Hamilton Anxiety Rating Scale (HARS), Global Functional (or Social Adaptation) Rating (GFR).
For the recording of alcohol intake, a self-administered scale was used to record the alcohol-free days as a percentage of the total and the number of daily alcohol intakes, considering the intake of 10 grams as a single intake, in the month preceding treatment, during the treatment months and in the month following acetyl L-carnitine treatment.

Where [1] appears, read: Day 45 of administration, 1 g per os twice daily.
The mark [2] stands for this setting: Day 90 (one month after the end of treatment).

SMILES strings stand for the structures.

As for `CC(=O)O[C@H](CC(=O)[O-])C[N+](C)(C)C` [acetyl L-carnitine], the “Hamilton Depression Rating Scale (HDRS)” value by setting is: (Day 45 of administration, 1 g per os twice daily, 20 patients) 9.1 ± 4.8; (Day 90 (one month after the end of the two-month treatment)) 12.8 ± 5.4. Also, the “Hamilton Anxiety Rating Scale (HARS)” value runs as follows: under setting [1], 12.8 ± 4.4; under setting [2], 16.9 ± 5.0. Moreover, the “Global Functional (or Social Adaptation) Rating (GFR)” value reads like this: under setting [1], 75.3 ± 7.9; under setting [2], 67.7 ± 6.8. In addition, for the setting “all male patients, 15 days after the start of treatment”, the “symptoms of impotence and diminished libido” value was “disappearance of symptoms of impotence and diminished libido”. In addition, the alcohol-free days runs as follows: (during the two months of treatment, on average, self-administered scale) 16±3; (in the month after treatment) 8±2. In addition, the “changes in laboratory tests, BP and ECG as compared to pre-treatment conditions” value (end of treatment) was “no significant changes”. Besides, for the setting “end of two-month treatment, 1 g per os twice daily”, the “laboratory tests performed at the end of treatment” value was “normal values”. Also, for the setting “subjects suffering from dysthymic disorders, conclusion of the clinical trial”, the “expression of the depressive behavioural component” value was “significantly reduces”. For the same compound, the “mean number of alcohol intakes (10 grams = a single intake)” value (under treatment, as against 7.8±1.2) is 6.1±2.1.
